Data published in the supplement of paper PMC10307832.

Key:
Assay in all cases: relative viability (nuclei count vs DMSO), 5 days (fraction); higher = more cells survive
[1] = compound: O=C(Nc1cccc(C(F)(F)F)c1)Nc1cc(S(=O)(=O)NC2CC2)ccc1-c1ccsc1 [AGI-6780] + Cc1cc(Nc2cc(N3CCN(C)CC3)nc(Sc3ccc(NC(=O)C4CC4)cc3)n2)n[nH]1 [Tozasertib] (partner 0.1 µM)
How it was run: (§1)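 One day after seeding in 1536-well plates, lung cancer cell lines were dosed by pin tool. Dosing was either single-drug or a fixed anchor-drug dose plus five library-drug doses (not always all listed) in √10 steps. After 5 days, nuclei were stained in one fix-and-stain step and counted on 4× images, and relative viability is the nuclei count of treated wells over that of vehicle wells, given as the median of duplicate plates.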

[2] = compound: O=C(Nc1cccc(C(F)(F)F)c1)Nc1cc(S(=O)(=O)NC2CC2)ccc1-c1ccsc1 [AGI-6780] + Nc1ncn([C@H]2C[C@H](O)[C@@H](CO)O2)c(=O)n1 [Decitabine] (partner 2 µM)
How it was run: as §1

[3] = compound: O=C(Nc1cccc(C(F)(F)F)c1)Nc1cc(S(=O)(=O)NC2CC2)ccc1-c1ccsc1 [AGI-6780] + NC(=O)Nc1cc(-c2cccc(F)c2)sc1C(=O)N[C@H]1CCCNC1 [AZD7762] (partner 0.2 µM)
How it was run: as §1

[4] = compound: O=C(Nc1cccc(C(F)(F)F)c1)Nc1cc(S(=O)(=O)NC2CC2)ccc1-c1ccsc1 [AGI-6780] + CC(C)C[C@H](NC(=O)[C@H](Cc1ccccc1)NC(=O)c1cnccn1)B(O)O [Bortezomib] (partner 0.002 µM)
How it was run: as §1

Row | Cell Line | relative viability ([1]; first compound 0.08 µM) | relative viability ([1]; first compound 0.253 µM) | relative viability ([1]; first compound 0.8 µM) | relative viability ([1]; first compound 2.53 µM) | relative viability ([1]; first compound 8 µM) | relative viability ([2]; first compound 0.08 µM) | relative viability ([2]; first compound 0.253 µM) | relative viability ([2]; first compound 0.8 µM) | relative viability ([2]; first compound 2.53 µM) | relative viability ([2]; first compound 8 µM) | relative viability ([3]; first compound 0.08 µM) | relative viability ([3]; first compound 0.253 µM) | relative viability ([3]; first compound 0.8 µM) | relative viability ([3]; first compound 2.53 µM) | relative viability ([3]; first compound 8 µM) | relative viability ([4]; first compound 0.08 µM) | relative viability ([4]; first compound 0.253 µM) | relative viability ([4]; first compound 0.8 µM) | relative viability ([4]; first compound 8 µM) | relative viability ([4]; first compound 2.53 µM)
1 | NCI-H1666 | 0.603 | 0.616 | 0.611 | 0.503 | 0.563 | 0.665 | 0.78 | 0.733 | 0.663 | 0.72 | 0.809 | 0.977 | 0.842 | 0.926 | 0.898 | 0.819 | 0.838 | 0.782 | 0.857 | 
2 | NCI-H2126 | 0.82 | 0.838 | 0.89 | 0.726 | 0.857 | 0.577 | 0.615 | 0.562 | 0.501 | 0.582 | 1.03 | 1.08 | 0.989 | 0.97 | 1.08 | 1.17 | 1.07 | 1.11 | 1.09 | 1.09
